{
  "source": "patent US20170087113A1",
  "about": "“METHODS FOR TREATING UREA CYCLE DISORDERS TO PREVENT HYPERAMMONEMIC CRISES BY CONTROLLING BLOOD AMMONIA LEVELS” (HORIZON THERAPEUTICS, LLC, priority 2014, published 2017)",
  "tested_on": "UCD patients",
  "experiment": "Occurrence of hyperammonemic crises (HAC): 12 months pre-enrollment on NaPBA versus 12-month GPB treatment (studies HPN-100-005, -007, -012)",
  "format": "in vivo, human",
  "excerpt": "Data from four short-term switchover (SO) studies and three 12-month safety extension (SE) studies in adult and pediatric UCD patients were included in the analyses; all have been previously described. […] Most patients completing these protocols plus additional patients (a total of 100 of whom 49 were pediatric) were enrolled into safety extension studies and received GPB for 12 months (Diaz 2013), (Mokhatarani 2013), (Berry 2014).\nAll protocols and informed consents were reviewed and approved by the Investigational Review Board of each participating institution prior to initiation. […] In all studies, patients received GPB three times daily (or more frequently in small children to match their prior NaPBA schedule) at a daily dose equivalent to their previously prescribed NaPBA dose. […] Fasting ammonia and glutamine levels were analyzed as a predictor of HACs during long-term treatment.\nDuring the 12 month studies, blood samples for ammonia and glutamine analyses were collected monthly and information on HACs was recorded. […] Ammonia and glutamine concentrations were measured by an accredited hospital laboratory at each study site and ammonia values were normalized to a standard range of 9 to 35 μmol/L.\nData for 100 UCD subjects from three clinical trials (HPN-100-005, HPN-100-007, and HPN-100-012) were analyzed to evaluate the correlation between fasting ammonia levels and HAC (Table 1). Patients were treated for 12 months with GPB during the study. There was an almost equal split in the number of subjects who were adults (51%) and children (49%), defined as age<18 years at the time of enrollment. In this population, 30 patients had experienced a total of 54 HACs in the 12 months prior to the study and 19 patients experienced a total of 27 HACs during the study (Table 1). Baseline ammonia was defined as the subject's fasting ammonia level taken either at month zero or at the screening visit depending on which study the subject was enrolled in and whether the subject was enrolled in previous studies.",
  "key": {"[1]": {"conditions": "all patients N=100, pre-study (NaPBA) or during study (GPB)"}, "[2]": {"conditions": "study 005, N=17, pre-study (NaPBA) or during study (GPB)"}, "[3]": {"conditions": "study 007, N=60, pre-study (NaPBA) or during study (GPB)"}, "[4]": {"conditions": "study 012, N=23, pre-study (NaPBA) or during study (GPB)"}, "[5]": {"conditions": "subjects ages 6 years or higher, total N=77, pre-study (NaPBA) or study (GPB)"}},
  "data": [
    {"substance": "sodium phenylbutyrate [NaPBA]", "values": [
      {"measurement": "12-month incidence of HAC", "setting": "adult (≧18 years)", "value": 0.832},
      {"measurement": "Proportion of patients who experienced an HAC", "setting": "adult (≧18 years)", "value": 17.7, "unit": "%"},
      {"measurement": "# of HA events (total no. of HAC)", "setting": "all patients N=100, 12 months pre-study (NaPBA) or during study (GPB)", "value": 54},
      {"measurement": "N with ≧1 HA events (number of patients with HAC)", "setting": "[1]", "value": 30},
      {"measurement": "Proportion of patients who experienced an HAC", "setting": "[1]", "value": 30.0, "unit": "%"},
      {"measurement": "12-month incidence of HAC", "setting": "female", "value": 0.712},
      {"measurement": "Proportion of patients who experienced an HAC", "setting": "female", "value": 23.9, "unit": "%"},
      {"measurement": "12-month incidence of HAC", "setting": "male", "value": 0.516},
      {"measurement": "Proportion of patients who experienced an HAC", "setting": "male", "value": 42.4, "unit": "%"},
      {"measurement": "12-month incidence of HAC", "setting": "non-white", "value": 0.660},
      {"measurement": "Proportion of patients who experienced an HAC", "setting": "non-white", "value": 36.8, "unit": "%"},
      {"measurement": "12-month incidence of HAC", "setting": "pediatric (<18 years)", "value": 0.338},
      {"measurement": "Proportion of patients who experienced an HAC", "setting": "pediatric (<18 years)", "value": 42.9, "unit": "%"},
      {"measurement": "# of HA events", "setting": "[2]", "value": 8},
      {"measurement": "N with ≧1 HA events", "setting": "[2]", "value": 5},
      {"measurement": "# of HA events", "setting": "[3]", "value": 17},
      {"measurement": "N with ≧1 HA events", "setting": "[3]", "value": 10},
      {"measurement": "# of HA events", "setting": "[4]", "value": 29},
      {"measurement": "N with ≧1 HA events", "setting": "[4]", "value": 15},
      {"measurement": "# of HACs", "setting": "[5]", "value": 25},
      {"measurement": "Subjects with 1 or more HACs", "setting": "[5]", "value": 15},
      {"measurement": "12-month incidence of HAC", "setting": "white", "value": 0.564},
      {"measurement": "Proportion of patients who experienced an HAC", "setting": "white", "value": 28.4, "unit": "%"}
    ]}
  ]
}
